PubChem BioAssay (NCI)
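Results reflect a 48-hour exposure of cells in 96-well plates to compound at five concentrations. Abbreviation: GI50, concentration required for 50% inhibition of growth. Definition used: TGI = concentration required for complete inhibition of growth.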

Legend:
Test in all cases: DTP human tumour cell line panel, 48 h
SN12C renal = tested on: SN12C renal
M14 melanoma = tested on: M14 melanoma
CAKI-1 renal = tested on: CAKI-1 renal
NCI-H522 lung = tested on: NCI-H522 lung
SK-MEL-5 melanoma = tested on: SK-MEL-5 melanoma
MDA-MB-231 breast = tested on: MDA-MB-231 breast
EKVX NSCLC = tested on: EKVX NSCLC
MCF7 breast = tested on: MCF7 breast
LOX IMVI melanoma = tested on: LOX IMVI melanoma
SF-539 CNS = tested on: SF-539 CNS

C/C(=N\O)c1cccc(Nc2cc(-c3ccccc3)nc3c(O)cccc23)c1
GI50 (SN12C renal): 3.58 µM
TGI (SN12C renal): 17.2 µM
GI50 (M14 melanoma): 3.47 µM
TGI (M14 melanoma): 18.8 µM
GI50 (CAKI-1 renal): 2.78 µM
TGI (CAKI-1 renal): > 37.3 µM
GI50 (NCI-H522 lung): 1.85 µM
TGI (NCI-H522 lung): 9.36 µM
GI50 (SK-MEL-5 melanoma): 1.53 µM
TGI (SK-MEL-5 melanoma): 16 µM
GI50 (MDA-MB-231 breast): 2.34 µM
TGI (MDA-MB-231 breast): 13.3 µM
GI50 (EKVX NSCLC): 10.3 µM
TGI (EKVX NSCLC): 56.7 µM
GI50 (MCF7 breast): 0.354 µM
TGI (MCF7 breast): 46.5 µM
GI50 (LOX IMVI melanoma): 3.12 µM
TGI (LOX IMVI melanoma): 19.7 µM
GI50 (SF-539 CNS): 2.2 µM
TGI (SF-539 CNS): 9.85 µM

O=C(O)c1ccc(C(=O)O)c(C(=O)O)c1.[NH-]C1CCCCC1[NH-].[Pt+2]
GI50 (SN12C renal): 3.19 µM
TGI (SN12C renal): 66.8 µM
GI50 (M14 melanoma): 9.61 µM
TGI (M14 melanoma): 37.4 µM
GI50 (CAKI-1 renal): 1.86 µM
TGI (CAKI-1 renal): 32.7 µM
TGI (NCI-H522 lung): 24.7 µM
GI50 (SK-MEL-5 melanoma): 1.43 µM
TGI (SK-MEL-5 melanoma): 14.5 µM
GI50 (MDA-MB-231 breast): 16.7 µM
TGI (MDA-MB-231 breast): > 73.6 µM
GI50 (EKVX NSCLC): 29.1 µM
TGI (EKVX NSCLC): 90.8 µM
GI50 (MCF7 breast): 2.3 µM
TGI (MCF7 breast): 31.9 µM
GI50 (LOX IMVI melanoma): 3.45 µM
TGI (LOX IMVI melanoma): 68.2 µM
GI50 (SF-539 CNS): 4.29 µM
TGI (SF-539 CNS): 43.5 µM

N#C/C(=C\c1ccc(F)cc1)n1nc2cccc(F)c2n1
GI50 (SN12C renal): 3.84 µM
TGI (SN12C renal): > 100 µM
GI50 (M14 melanoma): 3.27 µM
TGI (M14 melanoma): > 100 µM
GI50 (CAKI-1 renal): 5.17 µM
TGI (CAKI-1 renal): > 100 µM
GI50 (NCI-H522 lung): 3.24 µM
TGI (NCI-H522 lung): > 100 µM
GI50 (SK-MEL-5 melanoma): 3.76 µM
TGI (SK-MEL-5 melanoma): > 100 µM
GI50 (MDA-MB-231 breast): 5.55 µM
TGI (MDA-MB-231 breast): > 100 µM
GI50 (EKVX NSCLC): 3.8 µM
TGI (EKVX NSCLC): > 100 µM
GI50 (MCF7 breast): 2.24 µM
TGI (MCF7 breast): > 100 µM
GI50 (LOX IMVI melanoma): 2.92 µM
TGI (LOX IMVI melanoma): 9.76 µM
GI50 (SF-539 CNS): 3.14 µM
TGI (SF-539 CNS): 11.1 µM

Cn1c(=O)c2[nH]c(CCCc3ccc([N+](=O)[O-])cc3)nc2n(C)c1=O
TGI (SN12C renal): > 100 µM
TGI (M14 melanoma): > 100 µM
TGI (CAKI-1 renal): > 100 µM
TGI (NCI-H522 lung): > 100 µM
TGI (SK-MEL-5 melanoma): > 100 µM
TGI (MDA-MB-231 breast): > 100 µM
TGI (EKVX NSCLC): > 100 µM
TGI (MCF7 breast): > 100 µM
TGI (LOX IMVI melanoma): > 100 µM
TGI (SF-539 CNS): > 100 µM

Oc1ccc(Cc2ccc(O)c(C3CC(c4ccc(Cl)cc4)=NN3)c2)cc1C1CC(c2ccc(Cl)cc2)=NN1 (centres undefined)
GI50 (SN12C renal): 2.79 µM
TGI (SN12C renal): > 37.3 µM
GI50 (M14 melanoma): 3.93 µM
TGI (M14 melanoma): > 39.3 µM
GI50 (CAKI-1 renal): 3.19 µM
TGI (CAKI-1 renal): > 58.4 µM
GI50 (NCI-H522 lung): 2.56 µM
TGI (NCI-H522 lung): 9.88 µM
GI50 (SK-MEL-5 melanoma): 2.81 µM
TGI (SK-MEL-5 melanoma): 11.5 µM
GI50 (MDA-MB-231 breast): 2.49 µM
TGI (MDA-MB-231 breast): 8.94 µM
GI50 (EKVX NSCLC): 3.2 µM
TGI (EKVX NSCLC): > 100 µM
GI50 (MCF7 breast): 3.04 µM
TGI (MCF7 breast): > 100 µM
GI50 (LOX IMVI melanoma): 2.22 µM
TGI (LOX IMVI melanoma): 12 µM
GI50 (SF-539 CNS): 4.69 µM
TGI (SF-539 CNS): > 40.2 µM
